# From PubChem BioAssay (NCI)
#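 Grown in 96-well plates, cells were treated for 48 hours with each compound at five concentrations. Insufficient inhibition: endpoint recorded as highest concentration tested. GI50 marks 50% less growth. TGI denotes the concentration required for complete inhibition of growth.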
# Legend:
# Assay in all cases: NCI anticancer screen, dose series, 48 h
# [1] = system: A498 renal
# [2] = system: DU-145 prostate
# [3] = system: HCC-2998 colon
# [4] = system: NCI-H23 lung
# [5] = system: OVCAR-4 ovarian
# [6] = system: PC-3 prostate
# [7] = system: RPMI-8226 leukemia
# [8] = system: SK-MEL-28 melanoma
# [9] = system: SN12C renal
# [10] = system: SNB-19 CNS
SMILES,GI50 [1] [µM],TGI [1] [µM],GI50 [2] [µM],TGI [2] [µM],GI50 [3] [µM],TGI [3] [µM],GI50 [4] [µM],TGI [4] [µM],GI50 [5] [µM],TGI [5] [µM],GI50 [6] [µM],TGI [6] [µM],GI50 [7] [µM],TGI [7] [µM],GI50 [8] [µM],TGI [8] [µM],GI50 [9] [µM],TGI [9] [µM],GI50 [10] [µM],TGI [10] [µM]
Fc1ccc(-c2ncn(C3CCNCC3)c2-c2ccnc(Oc3ccc4c(c3)OCO4)n2)cc1,16,> 25,> 25,> 25,11.9,> 25,> 25,> 25,19.7,> 25,> 25,> 25,> 25,> 25,8.34,> 23.1,16.7,> 25,> 25,> 25
O=S(=O)(O)O,–,1780,–,1620,–,2150,–,1580,–,2080,–,1190,–,2500,–,1700,–,1450,–,2580
Oc1c(C(Nc2ccccc2Br)c2ccccc2)ccc2cccnc12 (stereo not drawn),2.04,25.6,4.81,> 100,2.19,97.9,3.96,26.9,1.3,55,3.92,> 100,6.28,> 100,2.46,14.9,2.68,35.1,2.33,> 100
CCC(=O)N1C/C(=C/c2ccc(Cl)cc2)C(=O)/C(=C/c2ccc(Cl)cc2)C1,1.5,3.04,1.13,2.65,0.735,1.82,1.44,3.74,0.836,2.86,0.464,2.4,0.101,0.911,1.71,3.33,0.711,2.05,1.02,2.45
OCCCCC#Cc1ccccc1C#Cc1ccc(O)cc1,20.7,38.5,16.8,33.6,15.4,30.4,14.3,28.7,15.8,31.9,17.2,35.2,19.1,48.9,14.2,27.8,18.8,34.8,19.2,35.9
CC1=CC2C(C(O)CC3(C)C2CC(C)C32OCOC23COCO3)C2(C)C/C(=C/O)C(=O)C=C12 (stereo not drawn),2.83,14.8,2.57,5.81,1.91,3.38,2,3.83,1.74,3.83,1.71,4.4,1.84,5.15,1.87,3.51,2.5,6.39,3.22,12
COc1ccc(/C=C(/c2ccccc2)[N+](=O)[O-])c(OC)c1,1.55,2.99,1.44,2.92,1.92,3.4,1.93,4.76,1.55,2.92,1.32,2.79,0.372,1.64,1.5,3.03,1.47,3,1.65,3.05
CN(C)Cc1ccc(-c2cc3onc(-c4ccccc4)c3c(=O)n2C)cc1,–,56.9,–,85.3,–,–,–,> 100,–,> 100,–,> 100,–,54.9,–,41.2,–,> 100,–,> 100
N#Cc1nc(-c2ccc(F)cc2)oc1S(=O)(=O)N1CCCCC1,14.1,27.4,1.81,3.24,1.8,3.46,2.14,4.92,2.19,4.76,1.81,3.7,–,–,1.75,3.28,1.65,3.11,11,23
COc1ccc2c(c1)[n+](=O)c(C(=O)c1cccs1)c(C(F)(F)F)n2[O-],–,–,2.57,12.7,4.72,22.7,2.88,25.8,16.8,> 50,2.42,18.6,3.41,> 50,16.3,> 50,2.18,10.4,10.7,> 50
O=C(Oc1cccc(Cl)c1)c1ccccc1Nc1ccnc(C(F)(F)F)c1,–,–,14.2,27.6,3.46,6.66,2.41,8.26,–,–,7.39,23.6,1.83,4.33,–,–,2.92,6.18,–,–
O=c1c2c([nH]c3nccn13)CCC2,–,8.91,–,> 10,–,–,–,> 10,–,> 10,–,> 10,–,> 10,–,> 10,–,> 10,–,> 10
O=[N+]([O-])c1cccc(/C=N/NC2=CS(=O)(=O)C=C2)c1,–,> 100,–,> 100,–,–,–,> 100,–,> 100,–,> 100,–,> 100,–,> 100,–,> 100,–,> 100
Nc1ccn(C2CC(F)C(CO)O2)c(=O)n1 (stereo not drawn),–,–,> 100,> 100,> 100,> 100,> 100,> 100,> 100,> 100,> 100,> 100,> 100,> 100,> 100,> 100,> 100,> 100,> 100,> 100
